Calls of active or inactive are those of the source. The calls are words filed in the database; no cut-off is given here. Numbered stars: 1 amine (or outer) side, 2 acyl side, 3 side chain; on linkers, the order of the positions; unused ones are H or OH. Square brackets hold non-standard residues; d marks the D form. Side chains are listed from the residue outwards. Peptide text beside a SMILES is read from it. * marks the point of attachment. C18 diacid = O=C(O)CCCCCCCCCCCCCCCCC(=O)*; γGlu = O=C(O)[C@H](CCC(=O)[*:2])N[*:1]; AEEA = NCCOCCOCC(=O)O; Aib = CC(C)(N)C(=O)O

The subject of test [1] is Mus musculus. The test can be described thus: Anorexigenic effect in ICR mouse assessed as decrease in food intake at 30 nmol/kg, sc measured upto 72 hrs by acute food intake study. In kind it is functional, organism-based.
Test [2] has as its system Mus musculus. Briefly: Reduction in serum ALT level in DIO mouse at 30 nmol/kg, sc treated twice a day measured after 21 days. Format: functional, organism-based. To be noted: time 21.0 day.
For test [3], the system named is Mus musculus. Briefly: Reduction in serum AST level in DIO mouse at 30 nmol/kg, sc treated twice a day measured after 21 days. Format: functional, organism-based. As to conditions: time 21.0 day.
Test [4] deals with Mus musculus. Briefly: Hypoglycemic effect in ICR mouse treated with 3 g/kg glucose assessed as reduction in blood glucose level at 100 nmol/kg, sc measured upto 120 mins by acute glucose lowering test. In kind it is functional, organism-based.
The target in test [5] is T1, Glucagon-like peptide 1 receptor (Homo sapiens, UniProt P43220). Briefly: Agonist activity at human GLP-1 receptor expressed in HEK293 cells assessed as cAMP level measured after 60 mins by HTRF based assay. In kind it is functional, cell-based. (In general: Cyclic AMP is a second messenger, typically raised through Gs and lowered through Gi signalling.)
In test [6] the test system is Mus musculus. Briefly: Reduction in body weight in DIO mouse at 30 nmol/kg, sc treated twice a day measured after 21 days. In kind it is functional. More on the design: scale not given: the % may be the effect or the level left. As to conditions: time 21 day.
Test [7] relates to Mus musculus. The test can be described thus: Reduction in feed intake in DIO mouse at 30 nmol/kg, sc treated twice a day measured after 21 days. In kind it is functional, organism-based. As to conditions: time 21.0 day.
The target in test [8] is Glucagon receptor (Homo sapiens, UniProt P47871). The test can be described thus: Agonist activity at human GCGR expressed in HEK293 cells assessed as cAMP level measured after 60 mins by HTRF based assay. Format: functional, cell-based.
In test [9] the test system is Mus musculus. Briefly: Reduction in serum triglyceride in DIO mouse at 30 nmol/kg, sc treated every 2 and half day once measured after 21 days. Format: functional, organism-based. As to conditions: time 21.0 day.
The test system of test [10] is Mus musculus. Briefly: Reduction in serum ALT in DIO mouse at 30 nmol/kg, sc treated every 2 and half day once measured after 21 days. As to conditions: time 21.0 day. In kind it is functional, organism-based.
The test system of test [11] is Mus musculus. The test can be described thus: Reduction in total fat mass in DIO mouse at 30 nmol/kg, sc treated every 2 and half day once measured after 21 days. Format: functional, organism-based. As to conditions: time 21.0 day.
The test system of test [12] is Mus musculus. Briefly: Reduction in total cholesterol in DIO mouse at 30 nmol/kg, sc treated every 2 and half day once measured after 21 days. Format: functional, organism-based. To be noted: time 21.0 day.
Test [13] concerns Mus musculus. Briefly: Anorexigenic effect in sc dosed ICR mouse assessed as decrease in food intake measured upto 72 hrs by acute food intake study. In kind it is functional, organism-based. As to conditions: dose 10-100 nmol/kg.
Test [14] deals with Mus musculus. Briefly: Reduction in blood glucose level in non-fasting DIO mouse at 30 nmol/kg, sc treated every 2 and half day once measured after 21 days by glucose tolerance test. Format: functional, organism-based. To be noted: time 21.0 day.
The subject of test [15] is Mus musculus. Briefly: Anorexigenic effect in ICR mouse assessed as decrease in food intake at 30 nmol/kg, sc measured at 48 hrs by acute food intake study. Format: functional, organism-based.
The subject of test [16] is Mus musculus. The test can be described thus: Hypoglycemic effect in ICR mouse treated with 3 g/kg glucose assessed as reduction in blood glucose level at 30 nmol/kg, sc measured upto 120 mins pretreated with GLP-1R antagonist by OGTT. Format: functional, organism-based.
In test [17] the test system is Mus musculus. Briefly: Antihyperglycemic effect in DIO mouse assessed as antihyperglycemic duration by measuring blood glucose at 30 nmol/kg, sc administered twice daily measured by hypoglycemic duration assay. Format: functional, organism-based.
For test [18], the system named is Mus musculus. Briefly: Antihyperglycemic effect in DIO mouse assessed as antihyperglycemic duration by measuring blood glucose at 30 nmol/kg, sc measured after 48 hrs by hypoglycemic duration assay. In kind it is functional, organism-based.
Test [19] deals with Mus musculus. The test can be described thus: Reduction in hepatic lipid content in DIO mouse at 30 nmol/kg, sc treated every 2 and half day once measured after 21 days by H and E staining based assay. As to conditions: time 21.0 day. In kind it is functional, organism-based.
Test [20] has as its system Mus musculus. Briefly: Reduction in serum AST in DIO mouse at 30 nmol/kg, sc treated every 2 and half day once measured after 21 days. As to conditions: time 21.0 day. In kind it is functional, organism-based.
Test [21] deals with Mus musculus. Briefly: Antihyperglycemic effect in DIO mouse assessed as prolonged antihyperglycemic duration by measuring blood glucose at 100 nmol/kg, sc. Format: functional, organism-based.
Test [22] has as its target T1, Glucagon-like peptide 1 receptor. The test can be described thus: Potency index, ratio of Semaglutide EC50 to test compound EC50 for agonist activity at human GLP-1 receptor expressed in HEK293 cells assessed as cAMP level measured after 60 mins by HTRF based assay. Format: functional, cell-based. As to conditions: filed as agonist.
For test [23], the system named is Mus musculus. Briefly: Antihyperglycemic effect in non-fasted DIO mouse assessed as decrease in blood glucose at 30 nmol/kg, sc measured upto 48 hrs. In kind it is functional, organism-based.
The subject of test [24] is Mus musculus. Briefly: Reduction in body weight in DIO mouse at 30 nmol/kg, sc treated every 2 and half day once measured after 21 days. As to conditions: time 21 day. The arrangement: scale not given: the % may be the effect or the level left. In kind it is functional.
Test [25] has as its system Mus musculus. The test can be described thus: Anorexigenic effect in ICR mouse assessed as decrease in food intake at 10 nmol/kg, sc measured upto 72 hrs by acute food intake study. Format: functional, organism-based.

T1 sequence (P43220 whole entry): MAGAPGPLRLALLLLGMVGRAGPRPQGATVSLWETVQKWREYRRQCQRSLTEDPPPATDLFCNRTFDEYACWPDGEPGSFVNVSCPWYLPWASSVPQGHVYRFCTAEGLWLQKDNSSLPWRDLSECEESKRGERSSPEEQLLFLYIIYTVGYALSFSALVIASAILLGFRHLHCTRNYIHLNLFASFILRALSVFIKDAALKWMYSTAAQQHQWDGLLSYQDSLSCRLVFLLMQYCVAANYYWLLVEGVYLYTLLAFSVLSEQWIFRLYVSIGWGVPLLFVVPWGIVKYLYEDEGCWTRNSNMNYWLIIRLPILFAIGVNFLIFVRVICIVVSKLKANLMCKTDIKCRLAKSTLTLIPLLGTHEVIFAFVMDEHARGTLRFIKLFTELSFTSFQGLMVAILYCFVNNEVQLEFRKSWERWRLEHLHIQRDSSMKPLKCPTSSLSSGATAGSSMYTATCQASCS
Chain of Glucagon receptor (P47871 whole entry): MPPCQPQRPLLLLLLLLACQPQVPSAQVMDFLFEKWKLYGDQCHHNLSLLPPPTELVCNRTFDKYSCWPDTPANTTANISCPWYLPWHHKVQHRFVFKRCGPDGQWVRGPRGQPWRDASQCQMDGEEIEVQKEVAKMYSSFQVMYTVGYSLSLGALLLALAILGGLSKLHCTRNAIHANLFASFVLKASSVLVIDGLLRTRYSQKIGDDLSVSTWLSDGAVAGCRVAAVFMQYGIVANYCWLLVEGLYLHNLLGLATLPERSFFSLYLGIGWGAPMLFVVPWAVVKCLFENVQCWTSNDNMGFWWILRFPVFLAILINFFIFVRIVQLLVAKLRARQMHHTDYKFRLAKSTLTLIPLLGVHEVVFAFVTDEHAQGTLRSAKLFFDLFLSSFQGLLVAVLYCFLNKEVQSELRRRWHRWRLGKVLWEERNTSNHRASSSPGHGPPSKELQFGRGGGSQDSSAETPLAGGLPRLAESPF

Turning to `CCCCCCCCCCCCCCCC(=O)N[C@@H](CCC(=O)NCCCC[C@H](NC(=O)[C@H](CC(=O)O)NC(=O)[C@H](CO)NC(=O)[C@@H](NC(=O)[C@H](Cc1ccccc1)NC(=O)[C@@H](NC(=O)CNC(=O)[C@H](CCC(N)=O)NC(=O)[C@H](CO)NC(=O)[C@@H](N)Cc1c[nH]cn1)[C@@H](C)O)[C@@H](C)O)C(=O)N[C@@H](CO)C(=O)N[C@@H](CCC(=O)O)C(=O)N[C@@H](Cc1ccc(O)cc1)C(=O)N[C@@H](CC(C)C)C(=O)N[C@@H](CC(=O)O)C(=O)N[C@@H](CO)C(=O)N[C@@H](CCC(=O)O)C(=O)N[C@@H](CCCNC(=N)N)C(=O)N[C@@H](C)C(=O)N[C@@H](CCCNC(=N)N)C(=O)N[C@@H](CC(=O)O)C(=O)N[C@@H](Cc1ccccc1)C(=O)N[C@H](C(=O)N[C@@H](C)C(=O)N[C@@H](Cc1c[nH]c2ccccc12)C(=O)N[C@@H](CC(C)C)C(=O)N[C@@H](CCC(=O)O)C(=O)N[C@@H](C)C(=O)NCC(=O)NCC(=O)O)C(C)C)C(=O)O` [COTADUTIDE], the result in [1], in [2], in test [3], in test [4] and in test [7] was Active. The EC50 (commonly the concentration needed to bring the measured effect to its halfway point) in test [5] was found to be 0.075 nM; in test [8], 0.17 nM. In test [6], this molecule gave an Activity of roughly 24.6%.

Regarding `CC[C@H](C)[C@H](NC(=O)[C@H](CC(C)C)NC(=O)[C@H](Cc1c[nH]c2ccccc12)NC(=O)[C@H](CC(=O)O)NC(=O)[C@@H](NC(=O)[C@H](Cc1ccccc1)NC(=O)[C@H](CCC(=O)O)NC(=O)[C@H](CCCCNC(=O)COCCOCCNC(=O)COCCOCCNC(=O)CC[C@H](NC(=O)CCCCCCCCCCCCCCCCC(=O)O)C(=O)O)NC(=O)[C@H](C)NC(=O)[C@H](C)NC(=O)[C@H](CCC(=O)O)NC(=O)[C@H](CCC(=O)O)NC(=O)[C@H](CCC(=O)O)NC(=O)[C@H](CC(C)C)NC(=O)[C@H](Cc1ccc(O)cc1)NC(=O)[C@H](CO)NC(=O)[C@H](CO)NC(=O)[C@H](CCSC)NC(=O)[C@H](CC(=O)O)NC(=O)[C@H](CO)NC(=O)[C@@H](NC(=O)[C@H](Cc1ccccc1)NC(=O)[C@@H](NC(=O)CNC(=O)[C@H](CC(=O)O)NC(=O)C(C)(C)NC(=O)[C@@H](N)Cc1c[nH]cn1)[C@@H](C)O)[C@@H](C)O)C(C)C)C(=O)N[C@@H](CCCCN)C(=O)NCC(=O)N[C@@H](CCCNC(=N)N)C(=O)N1CCC[C@H]1C(=O)N[C@@H](C)C(N)=O` (H-H[Aib]DGTFTSDMSSYLEEEAAK([AEEA-AEEA-γGlu-C18 diacid])EFVDWLIKGRPA-NH2), the result in test [9], in test [10], in test [1], in test [11], in test [12] and in [14] was Active. Besides, the result in test [15], in test [17], in test [18], in test [19], in test [20] and in test [21] was Active. The result in [23], in [4] and in test [25] was Active. Also, the values for the Activity entry in test [13] and in [24] were “Dose-Dependent Effect” and 24.9%, respectively. For the same molecule, the outcome in test [16] was inactive. The Ratio EC50 in test [22] turned out to be 2.8. Further, the EC50 in test [5] stood at 0.019 nM.
